Data published in US9896445B2, “Heterocyclic inhibitors of ERK1 and ERK2 and their use in the treatment of cancer” (Asana Biosciences, LLC, priority 2015, dated 2018).

Experiments:
ERK1 = molecular target: T1, ERK1 (Homo sapiens, UniProt P27361); assay: ERK1 HTRF (biochemical) assay; details: HTRF
T1 construct: purchased Jubilant Biosys
Method: (§1) ERK1 and ERK2 HTRF (Biochemical) Assays
These assays employed a homogeneous time resolved fluorescence (HTRF) technique. […] The plate was incubated at room temperature for 60 min with shaking. […] The IC50 values (half maximal inhibitory concentration values) were subsequently determined using a sigmoidal dose-response curve (variable slope) in GraphPad Prism® 5 software.

ERK2 = molecular target: T2, ERK2 (Homo sapiens, UniProt P28482); assay: ERK2 HTRF (biochemical) assay; details: HTRF
T2 construct: purchased Jubilant Biosys
Method: as §1
These assays employed a homogeneous time resolved fluorescence (HTRF) technique. The compounds were serially diluted by half-log with concentrations ranging from 0.0005 to 10 uM in the assay buffer (50 mM Tris pH=7.5, 1 mM EGTA, 2 mM DTT, 10 mM MgCl2, 0.1% Tween-20) and 20 uL of substrate-ATP mix [1 uM Biotin-LC-Myelin Basic Protein (MBP) derivatized Peptide (Anaspec)-24 uM ATP (Sigma)] was added to each well of the assay plate. Then 10 uL of enzyme mix [25 nM ERK1 or ERK2 (Jubilant Biosys) in assay buffer] was added to each well. The plate was incubated at room temperature for 60 min with shaking. The HTRF mix [625 nM LANCE® Ultra Europium-anti-phospho-MBP (Perkin Elmer) and 2 nM Phycolink® Streptavidin-Allophycocyanin (SA-APC) (Prozyme) in HTRF buffer (50 mM Tris-HCl pH=7.5, 100 mM NaCl, 0.1% BSA, 0.05% Tween20, 0.5 mM EDTA)] was prepared and 75 uL of this mix was added to the HTRF plate. After incubation for 60 min at room temperature, 10 uL of the reaction mixture was transferred to the HTRF assay plate and incubated for 45 min at room temperature with shaking. Plate was read using Pherastar in HTRF mode (excitation 337 nm, emission 665 & 620 nm). The IC50 values (half maximal inhibitory concentration values) were subsequently determined using a sigmoidal dose-response curve (variable slope) in GraphPad Prism® 5 software.

T2 sequence (P28482 whole entry): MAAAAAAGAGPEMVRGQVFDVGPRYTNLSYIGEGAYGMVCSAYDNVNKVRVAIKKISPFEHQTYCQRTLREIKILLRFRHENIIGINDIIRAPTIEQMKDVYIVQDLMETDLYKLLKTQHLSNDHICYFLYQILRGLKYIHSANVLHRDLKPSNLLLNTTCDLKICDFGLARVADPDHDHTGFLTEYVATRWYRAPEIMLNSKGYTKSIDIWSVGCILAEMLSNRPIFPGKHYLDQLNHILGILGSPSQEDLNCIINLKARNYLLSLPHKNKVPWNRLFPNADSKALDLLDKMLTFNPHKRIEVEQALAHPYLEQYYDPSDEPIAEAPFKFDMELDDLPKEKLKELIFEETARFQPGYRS
T1 sequence (P27361 whole entry): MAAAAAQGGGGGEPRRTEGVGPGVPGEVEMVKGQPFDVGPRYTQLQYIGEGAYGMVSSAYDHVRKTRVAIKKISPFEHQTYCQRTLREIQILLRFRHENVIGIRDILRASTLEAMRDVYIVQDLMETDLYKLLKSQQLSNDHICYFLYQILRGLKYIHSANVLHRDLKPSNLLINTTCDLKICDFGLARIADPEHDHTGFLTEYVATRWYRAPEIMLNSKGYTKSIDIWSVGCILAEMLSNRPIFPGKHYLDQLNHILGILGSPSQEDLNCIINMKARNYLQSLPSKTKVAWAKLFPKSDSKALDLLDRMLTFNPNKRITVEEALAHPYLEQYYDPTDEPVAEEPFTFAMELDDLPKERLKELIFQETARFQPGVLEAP

SMILES | IC50 (ERK1) [nM] | IC50 (ERK2) [nM]
O=C(Nc1cnn(-c2ccnc(Nc3ccccc3Cl)n2)c1)N[C@H](CO)c1cccc(Cl)c1 [Compound 1, (S)-1-(1-(3-chlorophenyl)-2-hydroxyethyl)-3-(1-(2-((2-chloro-phenyl)amino)pyrimidin-4-yl)-1H-pyrazol-4-yl)urea] | < 50 | ≤ 50
Cc1cnc(Nc2ccccc2Cl)nc1-n1cc(NC(=O)N[C@H](CO)c2cccc(Cl)c2)cn1 [Compound 2] | < 50 | 50 to 100
Cc1cnc(NC2CC2)nc1-n1cc(NC(=O)N[C@H](CO)c2cccc(Cl)c2)cn1 [Compound 3, (S)-1-(1-(3-chlorophenyl)-2-hydroxyethyl)-3-(1-(2-(cyclopropyl-amino)-5-methyl-pyrimidin-4-yl)-1H-pyrazol-4-yl)urea] | 50 to 100 | 50 to 100
O=C(Nc1cnn(-c2ccnc(Nc3ccccc3Cl)n2)c1)N[C@@H](CO)c1ccccc1 [Compound 4, (R)-1-(1-(2-((2-chlorophenyl)amino)pyrimidin-4-yl)-1H-pyrazol-4-yl)-3-(2-hydroxy-1-phenylethyl)urea] | > 2500 | > 2500
O=C(Nc1cnn(-c2ccnc(NC3CC3)n2)c1)N[C@H](CO)c1cccc(Cl)c1 [Compound 6, (S)-1-(1-(3-chlorophenyl)-2-hydroxyethyl)-3-(1-(2-(cyclopropyl-amino)pyrimidin-4-yl)-1H-pyrazol-4-yl)urea] | < 50 | ≤ 50
O=C(Nc1cnn(-c2ccnc(Nc3ccccc3Cl)n2)c1)N[C@H](CO)c1ccccc1 [Compound 7, (S)-1-(1-(2-((2-chlorophenyl)amino)pyrimidin-4-yl)-1H-pyrazol-4-yl)-3-(2-hydroxy-1-phenylethyl)urea] | 50 to 100 | 50 to 100
O=C(Nc1cnn(-c2ccnc(Nc3ccccc3)n2)c1)N[C@H](CO)c1cccc(Cl)c1 [Compound 12, (S)-1-(1-(3-chlorophenyl)-2-hydroxyethyl)-3-(1-(2-(phenyl-amino)pyrimidin-4-yl)-1H-pyrazol-4-yl)urea] | < 50 | ≤ 50
CC(C)C[C@H](CO)Nc1nccc(-n2cc(NC(=O)N[C@H](CO)c3cccc(Cl)c3)cn2)n1 [Compound 13, 1-((S)-1-(3-chlorophenyl)-2-hydroxyethyl)-3-(1-(2-(((R)-1-hydroxy-4-methylpentan-2-yl)amino)pyrimidin-4-yl)-1H-pyrazol-4-yl)urea] | 100 to 500 | 100 to 500
O=C(Nc1cnn(-c2ccnc(N[C@H]3CC[C@H](O)CC3)n2)c1)N[C@H](CO)c1cccc(Cl)c1 [Compound 14, 1-((S)-1-(3-chlorophenyl)-2-hydroxyethyl)-3-(1-(2-((trans-4-hydroxycyclohexyl)amino)pyrimidin-4-yl)-1H-pyrazol-4-yl)urea] | 100 to 500 | 100 to 500
O=C(Nc1cnn(-c2ccnc(NC3CC3)n2)c1)NC(CO)c1cccc(Cl)c1 (stereo not drawn) [Compound 16, 1-(1-(3-chlorophenyl)-2-hydroxyethyl)-3-(1-(2-(cyclopropyl-amino)pyrimidin-4-yl)-1H-pyrazol-4-yl)urea] | 100 to 500 | 50 to 100
CN(C(=O)Nc1cnn(-c2ccnc(NC3CC3)n2)c1)[C@H](CO)c1ccccc1 [Compound 18, (S)-3-(1-(2-(cyclopropylamino)pyrimidin-4-yl)-1H-pyrazol-4-yl)-1-(2-hydroxy-1-phenylethyl)-1-methylurea] | < 50 | 100 to 500
O=C(Nc1cnn(-c2ccnc(Nc3ccc(F)cc3Cl)n2)c1)N[C@H](CO)c1cccc(Cl)c1 [Compound 20, (S)-1-(1-(2-((2-chloro-4-fluorophenyl)amino)pyrimidin-4-yl)-1H-pyrazol-4-yl)-3-(1-(3-chlorophenyl)-2-hydroxyethyl)urea] | < 50 | ≤ 50
O=C(Nc1cnn(-c2ccnc(Nc3ccc4c(c3)OCO4)n2)c1)N[C@H](CO)c1cccc(Cl)c1 [Compound 21, (S)-1-(1-(2-(benzo[d][1,3]dioxol-5-ylamino)-pyrimidin-4-yl)-1H-pyrazol-4-yl)-3-(1-(3-chlorophenyl)-2-hydroxyethyl)urea] | < 50 | ≤ 50
CN1CCN(c2ccc(Nc3nccc(-n4cc(NC(=O)N[C@H](CO)c5cccc(Cl)c5)cn4)n3)cc2)CC1 [Compound 22, (S)-1-(1-(3-chlorophenyl)-2-hydroxyethyl)-3-(1-(2-((4-(4-methylpiperazin-1-yl)-phenyl)amino)pyrimidin-4-yl)-1H-pyrazol-4-yl)urea] | 100 to 500 | 50 to 100
Cc1cnc(Nc2cccnc2)nc1-n1cc(NC(=O)N[C@H](CO)c2cccc(Cl)c2)cn1 [Compound 23, (S)-1-(1-(3-chlorophenyl)-2-hydroxyethyl)-3-(1-(5-methyl-2-(pyridin-3-yl-amino)pyrimidin-4-yl)-1H-pyrazol-4-yl)urea] | < 50 | ≤ 50
Cc1cnc(NC2CC2)nc1-n1cc(NC(=O)NC(CO)c2cccc(Cl)c2)cn1 (stereo not drawn) [Compound 28, 1-(1-(3-chloro-phenyl)-2-hydroxy-ethyl)-3-(1-(2-(cyclopropyl-amino)-5-methylpyrimidin-4-yl)-1H-pyrazol-4-yl)urea] | 50 to 100 | 50 to 100
Cc1cnc(Nc2ccc(F)cc2Cl)nc1-n1ccc(C(=O)N[C@H](CO)c2cccc(Cl)c2)c1 [Compound 29, (S)-1-(2-((2-Chloro-4-fluorophenyl)amino)-5-methylpyrimidin-4-yl)-N-(1-(3-chlorophenyl)-2-hydroxyethyl)-1H-pyrrole-3-carboxamide] | < 50 | ≤ 50
O=C(Nc1cnn(-c2nc(NC3CC3)ncc2F)c1)N[C@H](CO)c1cccc(Cl)c1 [Compound 30, (S)-1-(1-(3-chlorophenyl)-2-hydroxyethyl)-3-(1-(2-(cyclopropyl-amino)-5-fluoro-pyrimidin-4-yl)-1H-pyrazol-4-yl)urea] | < 50 | ≤ 50
Cc1cnc(Nc2ccc(F)cc2Cl)nc1-n1ccc(C(=O)NC(CO)c2cccc(Cl)c2)c1 (stereo not drawn) [Compound 31, 1-(2-((2-chloro-4-fluorophenyl)amino)-5-methyl-pyrimidin-4-yl)-N-(1-(3-chlorophenyl)-2-hydroxyethyl)-1H-pyrrole-3-carboxamide] | < 50 | ≤ 50
Cc1cnc(Nc2ccc(F)cc2Cl)nc1-n1ccc(C(=O)NC(CO)c2ccccc2)c1 (stereo not drawn) [Compound 32, 1-(2-((2-chloro-4-fluorophenyl)amino)-5-methyl-pyrimidin-4-yl)-N-(2-hydroxy-1-phenylethyl)-1H-pyrrole-3-carboxamide] | < 50 | ≤ 50
Cc1cnc(Nc2ccc(F)cc2Cl)nc1-n1cc(C(=O)N[C@H](CO)c2cccc(Cl)c2)cn1 [Compound 35, (S)-1-(2-((2-chloro-4-fluoro-phenyl)amino)-5-methylpyrimidin-4-yl)-N-(1-(3-chloro-phenyl)-2-hydroxy-ethyl)-1H-pyrazole-4-carboxamide] | < 50 | ≤ 50
Cc1cnc(Nc2ccc(F)cc2Cl)nc1-n1cc(NC(=O)NC(CO)c2cccc(Cl)c2)cn1 (stereo not drawn) [Compound 36, 1-(1-(2-((2-chloro-4-fluorophenyl)-amino)-5-methyl-pyrimidin-4-yl)-1H-pyrazol-4-yl)-3-(1-(3-chlorophenyl)-2-hydroxyethyl)urea] | 100 to 500 | ≤ 50
Cc1cnc(Nc2ccc3c(c2)OCO3)nc1-n1cc(NC(=O)NC(CO)c2cccc(Cl)c2)cn1 (stereo not drawn) [Compound 37, 1-(1-(2-(benzo[d][1,3]dioxol-5-ylamino)-5-methylpyrimidin-4-yl)-1H-pyrazol-4-yl)-3-(1-(3-chlorophenyl)-2-hydroxyethyl)urea] | 100 to 500 | ≤ 50
C#Cc1cccc(Nc2nccc(-n3cc(NC(=O)N[C@H](CO)c4cccc(Cl)c4)cn3)n2)c1 [Compound 38, (S)-1-(1-(3-chlorophenyl)-2-hydroxyethyl)-3-(1-(2-((3-ethynyl-phenyl)amino)pyrimidin-4-yl)-1H-pyrazol-4-yl)urea] | < 50 | ≤ 50
Cc1cnc(NC2CC2)nc1-n1cc(C(=O)N[C@H](CO)c2cccc(Cl)c2)cn1 [Compound 39, (S)-N-(1-(3-chlorophenyl)-2-hydroxyethyl)-1-(2-(cyclopropylamino)-5-methylpyrimidin-4-yl)-1H-pyrazole-4-carboxamide] | 50 to 100 | ≤ 50
Cc1cnc(NC2CC2)nc1-n1cc(C(=O)NC(CO)c2cccc(Cl)c2)cn1 (stereo not drawn) [Compound 40, N-(1-(3-chlorophenyl)-2-hydroxyethyl)-1-(2-(cyclopropyl-amino)-5-methylpyrimidin-4-yl)-1H-pyrazole-4-carboxamide] | 50 to 100 | 50 to 100
Cc1cnc(Nc2ccc3c(c2)OCO3)nc1-n1cc(C(=O)NC(CO)c2cccc(Cl)c2)cn1 (stereo not drawn) [Compound 41, 1-(2-(benzo[d][1,3]dioxol-5-ylamino)-5-methylpyrimidin-4-yl)-N-(1-(3-chloro-phenyl)-2-hydroxy-ethyl)-1H-pyrazole-4-carboxamide] | 100 to 500 | ≤ 50
